Measurements as given in patent publication US9180215B2, “Positron emission tomography imaging method” (PURDUE RESEARCH FOUNDATION, priority 2007, dated 2015).

Target: T1, folate receptors on KB cells (Homo sapiens, UniProt P15328)
T1 construct: endogenous in cells; host or cells: KB cells
Assay: Competitive binding assay using KB cells (displacement of 3H-folic acid)
Settings: competitive binding at folate receptors on KB cells, 10 nM 3H-folic acid, 37° C., 1 h
Description: Competitive binding assay using KB cells. Relative binding affinity of the folate-fluoro-phenyl conjugate was evaluated according to the standard literature protocol by Westerhof et. al. (Mol Pharmacol, 1995, 48, 459-471) and C. P. Leamon et. al. (Bioconjugate Chem., 2006, 17 (5), 1226-1232) with minor modification.
Then cells were rinsed three times with 250 μL of PBS (phosphate saline buffer) and one time with trichloro-acetic acid. 1% sodium dodecylsulfate (250 μL) in PBS were added to each well and after 10 min cell lysates were transferred to individual vials containing 3 mL of scintillation cocktail and radioactivity was counted.

T1 sequence (P15328 25-234): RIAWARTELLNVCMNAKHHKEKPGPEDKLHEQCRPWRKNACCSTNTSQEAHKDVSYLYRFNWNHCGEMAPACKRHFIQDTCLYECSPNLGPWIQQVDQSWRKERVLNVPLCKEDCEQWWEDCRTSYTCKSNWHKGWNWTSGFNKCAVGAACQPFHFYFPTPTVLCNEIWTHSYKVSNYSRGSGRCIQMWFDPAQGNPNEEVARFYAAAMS

Kd: 23.8 nM
SMILES: Nc1nc2ncc(CNc3ccc(C(=O)N[C@@H](CCC(=O)NCCNC(=O)CCOCCOCCOCCOCCOCCOCCNC(=O)c4ccc(F)cc4)C(=O)O)cc3)nc2c(=O)[nH]1 [compound of FIG. 1]
